In paper PMC2713172 (Biochemistry, 2008):

Assays:
CYP2C9 F100L mutant [1] = target: T1, CYP2C9 F100L mutant (Homo sapiens, UniProt P11712, F100L)
CYP2C9 F114L mutant [2] = target: T2, CYP2C9 F114L mutant (Homo sapiens, UniProt P11712, F114L)
CYP2C9 F476L mutant [3] = target: T3, CYP2C9 F476L mutant (Homo sapiens, UniProt P11712, F476L); conditions: F476L
CYP2C9 F114W mutant [4] = target: T4, CYP2C9 F114W mutant (Homo sapiens, UniProt P11712, F114W)
CYP2C9 F476W mutant [5] = target: T5, CYP2C9 F476W mutant (Homo sapiens, UniProt P11712, F476W)
[6] = target: T6, CYP2C9 F114L/F476L double mutant (Homo sapiens, UniProt P11712, F114L/F476L)
wild-type CYP2C9 [7] = target: T7, wild-type CYP2C9 (Homo sapiens, UniProt P11712)
CYP2C9 F100L mutant [8] = target: T1, CYP2C9 F100L mutant; remark: listed apart in the source
CYP2C9 F114L mutant [9] = target: T2, CYP2C9 F114L mutant; remark: listed apart in the source
CYP2C9 F476L mutant [10] = target: T3, CYP2C9 F476L mutant
CYP2C9 F114W mutant [11] = target: T4, CYP2C9 F114W mutant; remark: listed apart in the source
CYP2C9 F476W mutant [12] = target: T5, CYP2C9 F476W mutant; remark: listed apart in the source
[13] = target: T6, CYP2C9 F114L/F476L double mutant; remark: listed apart in the source
[14] = target: CYP2C9 F114W/F476W double mutant (Homo sapiens, UniProt P11712, F114W/F476W)
wild-type CYP2C9 [15] = target: T7, wild-type CYP2C9; remark: listed apart in the source
wild-type CYP2C9 [16] = target: T7, wild-type CYP2C9; conditions: wild-type CYP2C9
CYP2C9 = conditions: structure 1OG5; cited from earlier work
wild-type CYP2C9 [17] = target: T7, wild-type CYP2C9; conditions: WT
[18] = substrate: CC(=O)C[C@@H](c1ccccc1)c1c(O)c2ccccc2oc1=O; assay: purified protein, by the assay type; conditions: other: WT; substrate hydroxylation; 37.0 °C

With CC(=O)C[C@@H](c1ccccc1)c1c(O)c2ccccc2oc1=O [(S)-warfarin, (S)-Warfarin] the “percent of wild-type kcat/Km” value (CYP2C9 F100L mutant [1]) was 133%, the “percent of wild-type kcat/Km” value (CYP2C9 F114L mutant [2]) was 2% and the “percent of wild-type kcat/Km” value (CYP2C9 F476L mutant [3]) was 2%. The “percent of wild-type kcat/Km” value (CYP2C9 F114W mutant [4]) was 83%, the “percent of wild-type kcat/Km” value (CYP2C9 F476W mutant [5]) was 500% and the “percent of wild-type kcat/Km” value [6] was 0.4%. The “ΔAmax (maximum observed difference 390–420 nm)” value (wild-type CYP2C9 [7]) was 5.3 ± 0.1 ×10^−3, the “percent of wild-type ΔA/K” value (wild-type CYP2C9 [7]; Wild-type) was 100% and the “ΔAmax (maximum observed difference 390–420 nm)” value (CYP2C9 F100L mutant [8]) was 6.5 ± 0.06 ×10^−3. For the same molecule, the “percent of wild-type ΔA/K” value (CYP2C9 F100L mutant [8]; F100L) was 262%, the “ΔAmax (maximum observed difference 390–420 nm)” value (CYP2C9 F114L mutant [9]) was 10 ± 0.07 ×10^−3 and the “percent of wild-type ΔA/K” value (CYP2C9 F114L mutant [9]; F114L) was 139%. For the same molecule, the “ΔAmax (maximum observed difference 390–420 nm)” value (CYP2C9 F476L mutant [10]) was 11 ± 0.2 ×10^−3, the “ΔAmax (maximum observed difference 390–420 nm)” value (CYP2C9 F114W mutant [11]) was 12 ± 0.3 ×10^−3 and the “percent of wild-type ΔA/K” value (CYP2C9 F114W mutant [11]; F114W) was 636%. The “ΔAmax (maximum observed difference 390–420 nm)” value (CYP2C9 F476W mutant [12]) was 9.3 ± 0.1 ×10^−3, the “percent of wild-type ΔA/K” value (CYP2C9 F476W mutant [12]; F476W) was 225% and the “ΔAmax (maximum observed difference 390–420 nm)” value [13] was 15 ± 0.3 ×10^−3. For the same molecule, the “percent of wild-type ΔA/K” value ([13]; F114L/F476L) was 75%, the “ΔAmax (maximum observed difference 390–420 nm)” value [14] was 12 ± 0.2 ×10^−3 and the “percent of wild-type ΔA/K” value ([14]; F114W/F476W) was 303%. The “distance from the heme to all ring protons” value (wild-type CYP2C9 [15]) was 6–7 Å, the “distance from the heme to the acetonyl methyl group” value (wild-type CYP2C9 [15]) was ~ 9 Å and the “coupling of hydroxylation to NADPH consumption” value (wild-type CYP2C9 [16]) was ~ 4%. For the same molecule, the “distance above the heme in crystal structure” value (CYP2C9) was ~ 10 Å and the “percent of wild-type kcat/Km” value (wild-type CYP2C9 [17]) was 100%.

B1: wild-type CYP2C9 (Homo sapiens) (protein)
chain: MALLLAVFLCLSCLLLLSLWRQSSGRGKLPPGPTPLPVIGNILQIGIKDISKSLTNLSKVYGPVFTLYFGLKPIVVLHGYEAVKEALIDLGEEFSGRGIFPLAERANRGFGIVFSNGKKWKEIRRFSLMTLRNFGMGKRSIEDRVQEEARCLVEELRKTKASPCDPTFILGCAPCNVICSIIFHKRFDYKDQQFLNLMEKLNENIKILSSPWIQICNNFSPIIDYFPGTHNKLLKNVAFMKSYILEKVKEHQESMDMNNPQDFIDCFLMKMEKEKHNQPSEFTIESLENTAVDLFGAGTETTSTTLRYALLLLLKHPEVTAKVQEEIERVIGRNRSPCMQDRSHMPYTDAVVHEVQRYIDLLPTSLPHAVTCDIKFRNYLIPKGTTILISLTSVLHDNKEFPNPEMFDPHHFLDEGGNFKKSKYFMPFSAGKRICVGEALAGMELFLFLTSILQNFNLKSLVDPKNLDTTPVVNGFASVPPFYQLCFIPV
With B1 the Km [18] was 4.1 ± 0.3 µM, the kcat [18] was 0.00417 ± 6.7e-05 s⁻¹ and the kcat/Km [18] was 0.06 (100) min^−1 μM^−1.
